From patent US20140363486A1, “METHODS FOR REDUCING OR ALTERING SCAR FORMATION” (Prelief, Inc., priority 2007, published 2014) come the findings set out here.

The test system of test [1] is wounds resulting from an excision surgery to the nose. Put plainly: Bilateral surgical nose excision wounds, one wound treated. It counts as in vivo, human. The settings on record: left-side wound. The source says: FIGS. 3a-3f illustrate the wound healing effect of a glycerophosphate salt on wounds resulting from an excision surgery, e.g., to the nose. A subject received two surgically inflicted wounds to their nose occasioned by removal of benign growths. […] Per physician's request, Neosporin® was applied to both wounds for one week, and Cellerity® was applied topically to the worst of the two wounds, i.e., the left-side surgical wound (on the right side of the photographs), twice daily. The subject was instructed to return to the laboratory for weekly observations.

Test [2] deals with rhino mucosal passage inflammation. Put plainly: Observation of low CGP concentrations on rhino mucosal passage inflammation. The settings on record: lower concentrations, between 1% and 2% by weight. It counts as in vivo. The source says:
In one embodiment of the present invention, an effective amount of a glycerophosphate salt, in a form of dry powder, granules, or gel is applied directly to the wound via spray, physical transfer by finger or implement to form a coating on the wound. The coating can contain a final local concentration of the glycerophosphate salt of about 0.5%-100% by weight. For example, the final local concentration of the glycerophosphate salt can be about 0.5% to about 5%, about 5% to about 15%, about 15% to about 25%, about 25% to about 35%, about 35% to about 45%, about 45% to about 55%, about 55% to about 65%, about 65% to about 75%, about 75% to about 85%, or about 85% to about 100%, by weight.

Test [3] concerns surgical wounds resulting from double knee replacement operations. Nature of the test: 20-patient clinical study, surgical wounds from double knee replacement operations, one leg treated. It counts as in vivo, human. The source says:
FIGS. 2a-2d are black and white photocopies of the color photographs of the knees of another human subject. They received simultaneous bilateral total knee replacements. […] Their left leg (on the right side of the photographs) received no CGP treatment.
FIGS. 2a, 2b, 2c and 2d, which are black and white photocopies of the color photographs of the knees of one of the 20 human subjects, illustrate the exemplary results from the clinical study. The subject received simultaneous bilateral total knee replacements. […] Their left leg (on the right side of the photographs) received no CGP treatment. Since the commencement of the treatment, 2 ml of Cellerity® 10 lotion was topically applied to the wounds of the knee surgeries twice daily everyday and will continue for 6 consecutive weeks.
The untreated leg, in contrast, has deep, wandering scars that are almost chasms in their depth and raw openness.
In contrast, SteriStripes were required to be applied to the untreated leg and continued for an additional 6 days.
In addition, two subjects of the first five subjects enrolled in the double knee replacement clinical study described above reported they felt “less heat” in their knee incision site treated with CGP than in the untreated knee site during the early weeks of post operative recovery.

The test system of test [4] is burn wound to the inner forearm. Nature of the test: Burn wound to the inner forearm, right side of the wound treated. It counts as in vivo, human. The source says:
Color variations in the background of the photos are an artifact of the time of the day and the location when the pictures were taken.
FIGS. 4a-4f illustrate the wound healing effect of a glycerophosphate salt on a burn wound to the inner forearm of a human subject. […] The left-side of the wound received no treatment.

calcium glycerophosphate [CGP]: the wound appearance result in test [1] (after 6 days of CGP treatment) is “appeared less deep than it was a week ago”; in test [1] (after 16 days of CGP treatment), “appeared significantly advanced”; in test [1] (after 30 days of CGP treatment), “healed, fully recolonized with epidermal skin”; in test [1] (after 36 days of CGP treatment) it was “completely healed”; in test [1] (after 51 days of CGP treatment), “completely healed”. In addition, the “wound healing, subject's report” value in test [1] (after one day of treatment, Cellerity (7.5% (w/w) CGP) twice daily, Neosporin on both wounds for one week) was “almost immediate apparent change in wound healing in favor of the CGP treated site”. In addition, the “effect on apparent rhino mucosal passage inflammation” value in test [2] is listed as “favorably affect”. Besides, in test [3] (Cellerity 10 lotion (10% (w/w) CGP), 2 ml twice daily from approx. 72 hours post operation, up to 14 days post operation, vs untreated leg), the “healing of the surgical wound / surgical scar” value was “healed dramatically better”. In test [3] (Cellerity 10 lotion twice daily, 14 days post operation, observed in the untreated leg), the “swelling and continuing pale inflammation” value is reported as “showed neither”. Also, the “need for SteriStrips post staple removal” value in test [3] (treated leg, the untreated leg required SteriStrips for an additional 6 days) is listed as “alleviated the need for application of SteriStrips”. In addition, in test [3] (two of the first five subjects enrolled, treated vs untreated knee site, early weeks of post operative recovery), the “heat felt in the knee incision site” value is recorded as “less heat”. The “time at which the wound healing improvement effect was first observed” value in test [4] (Cellerity lotion (7.5% (w/w) CGP) twice daily for the first three days, from 24 hours post infliction) turned out to be 3 days. For the same substance, in test [4] (after 16 days of CGP treatment, 7.5% lotion for three days, then 37% (w/w) CGP paste, the untreated side still had a pinkish color), the wound status entry was “completely healed and disappeared”.
